According to patent US20240391862A1, “(1,4,5-TRISUBSTITUTED-1H-PYRAZOL-3-YL)OXY-2-ALKOXY ALKYL ACIDS AND THEIR DERIVATIVES, THEIR SALTS AND THEIR USE AS HERBICIDAL AGENTS” (Bayer AKtiengesellschaft, priority 2021, published 2024):

Experiments:
ABUTH = test: Post-emergence herbicidal effect, greenhouse pot test; format: in vivo, Abutilon theophrasti; conditions: Abutilon theophrasti, 504 h, visual rating about 3 weeks after treatment, read-out: Post-emergence effect against ABUTH
Method in brief: (§1)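 Greenhouse pot plants in sandy loam receive a one-leaf-stage spray at 20 to 320 g/ha. Activity is assessed visually around 3 weeks afterwards on a 0–100% scale, where 100% means the plants have died.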

various unwanted plants = test: Pre-emergence effect against various unwanted plants (PE): comparative test of I-01 with compounds from WO2020/245044 (Tables 40a, 40b) and summary statements; format: in vivo
Source text: Seeds of monocotyledonous and dicotyledonous weed plants and crop plants are placed in plastic or organic planting pots and covered with soil. The compounds of the invention, formulated in the form of wettable powders (WP) or as emulsion concentrates (EC), are then applied to the surface of the covering soil as aqueous suspension or emulsion with addition of 0.5% additive at a water application rate equivalent to 600 l/ha. After the treatment, the pots are placed in a greenhouse and kept under good growth conditions for the trial plants. After about 3 weeks, the effect of the preparations is scored visually in comparison with untreated controls as percentages. For example, 100% activity=the plants have died, 0% activity=like control plants. Tables 40a and 40b below show the effects of the inventive compound (I-01) with structurally similar compounds (from WO2020/245044) on various harmful plants at an application rate corresponding to 320 g/ha or less, which have been obtained by the trial procedure specified hereinafter. The inventive compound (I-01) differs here by variance of a significant structural feature from the structurally similar compound with regard to the R^2 radical. Seeds of monocotyledonous and dicotyledonous weed plants and crop plants are placed in plastic or organic planting pots and covered with soil. The compounds of the invention, formulated in the form of wettable powders (WP) or as emulsion concentrates (EC), are then applied to the surface of the covering soil as aqueous suspension or emulsion with addition of 0.5% additive at a water application rate equivalent to 600 l/ha. After the treatment, the pots are placed in a greenhouse and kept under good growth conditions for the trial plants. After about 3 weeks, the effect of the preparations is scored visually in comparison with untreated controls as percentages. For example, 100% activity=the plants have died, 0% activity=like control plants. Effects/crop compatibilities of selected compounds (Table 39) on various harmful plants at an application rate corresponding to 80 to 320 g/ha that have been obtained by the trial procedure specified hereinabove are shown in Tables 40a and 40b below.

POLCO = test: Post-emergence herbicidal effect, greenhouse pot test; format: in vivo, Fallopia convolvulus; conditions: Fallopia convolvulus, 504 h, read-out: Post-emergence effect against POLCO in %
Method in brief: as §1

VERPE = test: Pre-emergence herbicidal effect, greenhouse pot test; format: in vivo, Veronica persica; conditions: scored visually after about 3 weeks vs untreated controls
Source text: (§2) Seeds of monocotyledonous and dicotyledonous weed plants and crop plants are placed in plastic or organic planting pots and covered with soil. The compounds of the invention, formulated in the form of wettable powders (WP) or as emulsion concentrates (EC), are then applied to the surface of the covering soil as aqueous suspension or emulsion with addition of 0.5% additive at a water application rate equivalent to 600 l/ha. After the treatment, the pots are placed in a greenhouse and kept under good growth conditions for the trial plants. After about 3 weeks, the effect of the preparations is scored visually in comparison with untreated controls as percentages. For example, 100% activity=the plants have died, 0% activity=like control plants.
(§3) Tables 1a to 19c below show the effects/crop compatibilities of selected compounds of the general formula (I) on various harmful plants at an application rate corresponding to 20 to 320 g/ha, which were obtained by the trial procedure specified above.
(§4) • ALOMY: Alopecurus myosuroides SETVI: Setaria viridis • AVEFA: Avena fatua POLCO: Fallopia convolvulus • AMARE: Amaranthus retroflexus ECHCG: Echinochloa crus-galli • LOLRJ: Lolium rigidum STEME: Stellaria media • VERPE: Veronica persica MATIN: Tripleurospermum inodorum • DIGSA: Digitaria sanguinalis ABUTH: Abutylon threophrasti • TRZAS: Triticum aestivum VIOTR: Viola tricolor • BRSNW: Brassica napus ZEAMX: Zea mays • PHBPU: Ipomoea purpurea GLXMA: Glycine max • ORYSA: Oryza sativa HORMU: Hordeum murinum

GLXMA = test: Pre-emergence herbicidal effect and crop plant compatibility, greenhouse pot test; format: in vivo, Glycine max; conditions: 80 g/ha, scored visually after about 3 weeks vs untreated controls
Source text: as §2, §3, §4

PHBPU = test: Pre-emergence herbicidal effect, greenhouse pot test; format: in vivo, Ipomoea purpurea; conditions: scored visually after about 3 weeks vs untreated controls
Source text: as §2, §3, §4

VIOTR = test: as above; format: in vivo, Viola tricolor; conditions: scored visually after about 3 weeks vs untreated controls
Source text: as §2, §3, §4

DIGSA [1] = test: as above; format: in vivo, Digitaria sanguinalis; conditions: 320 g/ha, scored visually after about 3 weeks vs untreated controls
Source text: as §2, §3, §4

DIGSA [2] = test: Post-emergence herbicidal effect, greenhouse pot test; format: in vivo, Digitaria sanguinalis; conditions: Digitaria sanguinalis, 504 h, visual rating about 3 weeks after treatment, read-out: Post-emergence effect against DIGSA
Method in brief: as §1

CCOC(=O)C(OCC)Oc1nn(-c2ccccc2F)c(-c2ccc(F)nc2)c1Br (racemic) [Example I-01, Ethyl (2RS)-{[4-bromo-1-(2-fluorophenyl)-5-(6-fluoropyridin-3-yl)-1H-pyrazol-3-yl]oxy}(ethoxy)acetate]
pest or weed control at 80 g/ha (ABUTH; 80 g/ha): 80%
pest or weed control at 320 g/ha (ABUTH): 90%
Pre-emergence effect, Effect %, ALOMY (various unwanted plants; ALOMY, 320 g/ha, comparative test): 90%
Pre-emergence effect, Effect %, ECHCG (various unwanted plants; 80 g/ha, comparative test): 70%
Pre-emergence effect, Effect %, ECHCG (various unwanted plants; 320 g/ha, comparative test): 100%
Pre-emergence effect, Effect %, LOLRI (various unwanted plants; 80 g/ha, comparative test): 90%
Pre-emergence effect, Effect %, LOLRI (various unwanted plants; 320 g/ha, comparative test): 100%
Pre-emergence effect, Effect %, MATIN (various unwanted plants; 80 g/ha, comparative test): 90%
Pre-emergence effect, Effect %, MATIN (various unwanted plants; 320 g/ha, comparative test): 90%
Pre-emergence effect, Effect %, POLCO (various unwanted plants; POLCO, 80 g/ha, comparative test): 80%
Pre-emergence effect, Effect %, SETVI (various unwanted plants; SETVI, 320 g/ha, comparative test): 100%
herbicidal efficacy by comparison to the structurally similar compounds (Tables 40a and 40b) (various unwanted plants; different harmful plants, 320 g or less per hectare, vs compounds from WO2020/245044): distinctly improved herbicidal efficacy
pest or weed control at 80 g/ha (POLCO; 80 g/ha): 80%
pest or weed control at 320 g/ha (POLCO): 80%
Pre-emergence effect at 320 g/ha against VERPE in % (VERPE): 80%
Pre-emergence effect at 80 g/ha against GLXMA in % (GLXMA): 0%

COC(=O)C(OC)Oc1nn(-c2ccccc2F)c(-c2ccc(F)nc2)c1Br (racemic) [Example I-04, Methyl (2RS)-{[4-bromo-1-(2-fluorophenyl)-5-(6-fluoropyridin-3-yl)-1H-pyrazol-3-yl]oxy}(methoxy)acetate]
pest or weed control at 320 g/ha (ABUTH): 80%
Pre-emergence effect at 80 g/ha against PHBPU in % (PHBPU; 80 g/ha): 80%
Pre-emergence effect at 320 g/ha against PHBPU in % (PHBPU): 90%
Pre-emergence effect at 320 g/ha against VERPE in % (VERPE): 90%
Pre-emergence effect at 80 g/ha against VIOTR in % (VIOTR; 80 g/ha): 80%
Pre-emergence effect at 320 g/ha against VIOTR in % (VIOTR): 100%

COC(=O)C(OC)Oc1nn(-c2ncccc2F)c(-c2ccc(F)nc2)c1Br (centres unmarked) [Example I-05]
pest or weed control at 320 g/ha (POLCO): 80%
Pre-emergence effect at 320 g/ha against DIGSA in % (DIGSA [1]): 90%
Pre-emergence effect at 320 g/ha against PHBPU in % (PHBPU): 80%
pest or weed control at 80 g/ha (DIGSA [2]; 80 g/ha): 90%
pest or weed control at 320 g/ha (DIGSA [2]; 320 g/ha): 90%
Pre-emergence effect at 320 g/ha against VIOTR in % (VIOTR): 100%
Pre-emergence effect at 80 g/ha against GLXMA in % (GLXMA): 10%
